Assays:
[1] = in vivo
[2] = system: Salmonella enteritidis PT4; set-up: species or system Ross 308 male broilers; settings: in vivo
[3] = set-up: species or system Ross 308 male broilers; settings: in vivo

Structure (SMILES): COc1cc(CNC(=O)CCCCC#Cc2ccccc2)ccc1O [phenylcapsaicin]
- BWG with increasing dose level [1]: tendency towards a lower BWG
- body weight (BW) vs 0, 20 or 28 mg/kg [1]: significantly lower
- body weight gain (BWG) vs 0, 20 or 28 mg/kg [1]: significantly lower
- daily feed intake [1]: no effect
- feed conversion ratio vs other Salmonella inoculated treatments [1]: higher
- feed intake [1]: did not affect
- BWG ([1]; 36 mg/kg): numerically the lowest
- FCR ([1]; 36 mg/kg): highest
- Salmonella counts (ranked) vs control group [2]: consistently lower
- Salmonella counts vs control chickens on a diet without phenylcapsaicin [2]: numerically had lower
- caecal colonization of Salmonella enteritidis PT4 [2]: not affected
- differences in ranked numbers of Salmonella counts between control and 20 mg/kg treatment group [2]: highly significant
- effective dose (most probable range) [2]: up to 20 mg/kg
- next highest Salmonella value in caecal digesta [2]: 4.0×10^6 CFU/g
- two highest Salmonella values in caecal digesta (considered outliers) [2]: 1.2×10^7 CFU/g
- spleen weight [3]: did not affect

Source: patent US11000050B2 (priority 2015, dated 2021)
